In patent publication US7541380B2, “Use of rapamycin and structural analogues thereof” (Universita' Degli Studi do Ferrara, priority 2002, dated 2009):

Legend:
mRNA for gamma-globin [1] = experiment: Quantitative RT-PCR of mRNA for gamma-globin in K562 cells; type: cell-based, human; conditions: 20 nM, 6 days of induction, control = 1
Experimental: (§1) The level of differentiation was evaluated by analysing the positive reaction of the cells to benzidine (3). […] The production of haemoglobin was evaluated by electrophoresis on cellulose acetate and by staining the gel with a solution based on benzidine/H2O2 (3). […] The expression of genes coding for gamma-globins was evaluated by quantitative RT-PCR (reverse transcriptase PCR) (3).

human cell cultures = experiment: Cytotoxic effect in human cell cultures; type: cell-based; conditions: compared with hydroxyurea
Experimental: The activity of rapamycin as an inducer of erythroid cell differentiation and the production of mRNA for gamma-globin was evaluated in human cell cultures. The results of this study are illustrated in the Tables given in the section relating to the Examples.

human cell line K562 [2] = experiment: Erythroid differentiation of K562 cells (benzidine-positive cells); conditions: 20 nM, mean ± SD of 6 experiments, control 4.1%
Experimental: as §1

mRNA for gamma-globin [3] = experiment: Quantitative RT-PCR of mRNA for gamma-globin in human erythroid precursors isolated from peripheral blood (two-stage culture of Fibach et al.); type: cell-based; conditions: for mRNA for gamma-globin (increase compared with untreated control erythroid precursors): rapamycin 3 μM, hydroxyurea 120 μM, control = 1
Text: In order to check whether rapamycin was capable, in addition to inducing K562 cell differentiation, of stimulating the production of mRNA for gamma-globin in human erythroid precursors isolated from peripheral blood, the technique published by Fibach et al. (19, 20) was used. This technique provides for two stages: in the first stage, the cells isolated from peripheral blood of a subject who is healthy or suffering from a haemopoietic pathology, such as sickle cell anaemia or beta-thalassaemia, are sown in a culture medium to which 10% of conditioned medium derived from the vesicle carcinoma cell line 5637 has been added. The second stage consists in cultivating the isolated cells in a suitable culture medium, supplemented by the erythropoietin hormone, 30% foetal bovine serum, 2-mercaptoethanol, albumin, glutamine and desamethasone in order to permit the proliferation and maturing of stem cells of the erythroid type. In this stage the cells can be treated with potential HbF inducers.

human cell line K562 [4] = experiment: Haemoglobin production in K562 cells by electrophoresis on cellulose acetate and benzidine/H2O2 staining; type: cell-based; conditions: K562 cells treated with rapamycin
Experimental: as §1

CO[C@H]1C[C@@H]2CC[C@@H](C)[C@@](O)(O2)C(=O)C(=O)N2CCCC[C@H]2C(=O)O[C@H]([C@H](C)C[C@@H]2CC[C@@H](O)[C@H](OC)C2)CC(=O)[C@H](C)/C=C(\C)[C@@H](O)[C@@H](OC)C(=O)[C@H](C)C[C@H](C)/C=C/C=C/C=C/1C [Rapamycin, rapamycin]
mRNA for gamma-globin (increase compared with untreated control K562 cells) (mRNA for gamma-globin [1]): 2.4
Cytotoxic effect (human cell cultures): much lower than that of hydroxyurea
Erythroid differentiation = percentage of K562 cells that react positively to benzidine (human cell line K562 [2]): 45.5 ± 5.8%
Erythroid differentiation = percentage of K562 cells that react positively to benzidine (human cell line K562 [2]; listed as rapamycin): 40-45%
Increase in the production of mRNA for gamma-globin compared with the same untreated cells (mRNA for gamma-globin [3]): 3.75 times
mRNA for gamma-globin (increase compared with untreated control erythroid precursors) (mRNA for gamma-globin [3]): 3.73
Chief haemoglobin produced (human cell line K562 [4]): Hb Portland (alpha2gamma2)

NC(=O)NO [Hydroxyurea, hydroxyurea]
mRNA for gamma-globin (increase compared with untreated control erythroid precursors) (mRNA for gamma-globin [3]): 2.25
